Test results from ChEMBL document CHEMBL1201862, “PubChem BioAssay data set” (2004).
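Method: 48-hour compound exposure of cells in 96-well plates, five concentrations, linear interpolation of endpoints. At the GI50, growth is halved.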 The source made the active and inactive calls. No stated cut-off is given here; in the data, active = GI50 up to about 1.1 µM and inactive = higher. Where a SMILES comes first, the peptide text is derived from it. [ ]: non-standard residue; d: D form. The star is where a group is joined. ξ: configuration not given here. NMeF = CN[CH](Cc1ccccc1)C(=O)O; ξNMe2Val = CC(C)C(C(=O)*)N(C)C; NMeV = CN[CH](C(=O)O)C(C)C; OtBu = CC(C)(C)O*

Columns and labels:
Test in all cases: NCI tumour cell line growth inhibition, 48 h
[1] = system: HT-29
[2] = system: K562
[3] = system: 786-0
[4] = system: M14
[5] = system: SR
[6] = system: MOLT-4
[7] = system: SK-MEL-5
[8] = system: OVCAR-3
[9] = system: SF-268
[10] = system: Malme-3M
[11] = system: CAKI-1
[12] = system: SF-295
[13] = system: KM12
[14] = system: HL-60
[15] = system: LOX IMVI
[16] = system: SK-MEL-2

Measured: GI50

Oc1nnc(CNc2ccc(Cl)cc2Cl)c2ccccc12
inactive: [1] 31.8 µM | [2] 44.9 µM | [3] 16.7 µM | [4] 32 µM | [5] 32.7 µM | [6] 31.5 µM | [7] 19.7 µM | [8] 18.9 µM | [9] 19.9 µM | [10] 23.6 µM | [11] 24.1 µM | [12] 20.9 µM | [13] 39.3 µM | [14] 22.5 µM | [15] 46.3 µM | [16] 82.8 µM

NC(=O)N/N=C(\CC1OC(=O)c2ccccc21)c1ccc([N+](=O)[O-])cc1 (stereo unspecified)
inactive: [1] 40.6 µM | [2] > 10 µM | [3] 17.6 µM | [4] 34 µM | [5] 32.7 µM | [6] 27.7 µM | [7] 23.1 µM | [8] 49.1 µM | [10] 25.3 µM | [11] 23.6 µM | [12] 68.4 µM | [13] 32.5 µM | [14] 26.3 µM | [15] 17 µM | [16] 19.4 µM

C/C(=C1/CCC/C(=C(/C)c2ccccc2)C1=O)c1ccccc1
inactive: [1] 26.4 µM | [2] 18.3 µM | [3] 44.4 µM | [4] 33.3 µM | [5] 14.6 µM | [6] 21.5 µM | [7] 22.8 µM | [8] 64.4 µM | [9] 45.7 µM | [10] 14.9 µM | [12] 38.1 µM | [13] 27 µM | [14] 10.7 µM | [15] 28.8 µM | [16] 15.1 µM

CNC(=O)NCCN1N=C(C)/C(=C\c2ccccc2)CC1=O
inactive: [1] > 100 µM | [2] > 100 µM | [3] > 100 µM | [4] > 100 µM | [5] > 100 µM | [6] > 100 µM | [7] > 100 µM | [8] > 100 µM | [9] > 100 µM | [10] > 100 µM | [11] > 100 µM | [12] > 100 µM | [13] > 100 µM | [14] > 100 µM | [15] > 100 µM | [16] > 100 µM

O=S1(=O)COc2ccccc2-c2ncncc21
inactive: [1] > 100 µM | [2] > 100 µM | [3] > 100 µM | [4] > 100 µM | [5] > 100 µM | [6] > 100 µM | [7] > 100 µM | [8] > 100 µM | [9] > 100 µM | [10] > 100 µM | [11] > 100 µM | [12] > 100 µM | [13] > 100 µM | [14] > 100 µM | [15] > 100 µM

CN(C)/C=N\c1ccn(CCO)c(=O)n1
inactive: [1] > 100 µM | [2] > 100 µM | [3] > 100 µM | [4] > 100 µM | [5] > 100 µM | [6] > 100 µM | [7] > 100 µM | [8] > 100 µM | [9] > 100 µM | [10] > 100 µM | [13] > 100 µM | [14] > 100 µM | [15] > 100 µM | [16] > 100 µM

COC(=O)C1Cc2c(n(Cc3ccccc3)c3ccccc23)C(CCC(=O)O)N1C(C)C (stereo unspecified)
inactive: [1] > 100 µM | [2] > 100 µM | [3] > 100 µM | [4] > 100 µM | [5] > 100 µM | [6] > 100 µM | [7] > 100 µM | [8] > 100 µM | [9] > 100 µM | [10] > 100 µM | [11] > 100 µM | [12] > 100 µM | [13] > 100 µM | [14] > 100 µM | [15] > 100 µM | [16] > 100 µM

Cc1ccccc1-c1cc(=O)c2cc(C)c(C)c(C(=O)O)c2o1
inactive: [1] > 100 µM | [2] > 100 µM | [3] > 100 µM | [4] > 100 µM | [5] > 100 µM | [6] > 100 µM | [7] > 100 µM | [8] > 100 µM | [10] > 100 µM | [11] > 100 µM | [12] > 100 µM | [13] > 100 µM | [14] > 100 µM | [15] > 100 µM | [16] > 100 µM

Cc1ccc(S(=O)(=O)N2CCCCC2CCO)cc1 (stereo unspecified)
inactive: [1] > 100 µM | [2] > 100 µM | [3] > 100 µM | [4] > 100 µM | [5] > 100 µM | [6] > 100 µM | [7] > 100 µM | [8] > 100 µM | [9] > 100 µM | [10] > 100 µM | [11] > 100 µM | [12] > 100 µM | [13] > 100 µM | [14] > 100 µM | [16] > 100 µM

O=C(Nc1c(O)[nH]c(=S)[nH]c1=O)c1ccc2ccccc2n1
inactive: [1] > 100 µM | [2] > 100 µM | [3] > 100 µM | [4] > 100 µM | [5] > 100 µM | [6] > 100 µM | [7] > 100 µM | [8] > 100 µM | [9] > 100 µM | [10] > 100 µM | [11] > 100 µM | [12] > 100 µM | [14] > 100 µM | [15] > 100 µM

CCC(Oc1ccc(OC)c2c1C(=O)CCC2)C(=O)O (stereo unspecified)
inactive: [1] > 100 µM | [2] > 100 µM | [3] > 100 µM | [4] > 100 µM | [5] > 100 µM | [6] > 100 µM | [7] > 100 µM | [8] > 100 µM | [9] > 100 µM | [10] > 100 µM | [12] > 100 µM | [13] > 100 µM | [14] > 100 µM | [15] > 100 µM | [16] > 100 µM

COc1ccc(/C(Cl)=C(\c2ccc(OCCN(C)C)cc2)c2ccc(OC(=O)C(C)(C)C)cc2)cc1
inactive: [1] 3.85 µM | [2] 3.01 µM | [3] 10.4 µM | [4] 3.58 µM | [5] 7.69 µM | [6] 2.91 µM | [7] 14 µM | [8] 15.2 µM | [9] 13.7 µM | [10] 13.6 µM | [11] 14.7 µM | [12] 14.8 µM | [13] 13.5 µM | [14] 5.97 µM | [15] 6.61 µM | [16] 15.9 µM

CC(C)C(C(=O)N(C)C(Cc1ccccc1)C(=O)N(C)C(C(=O)N(C)C(C(=O)N1CCCC1C(=O)OC(C)(C)C)C(C)C)C(C)C)N(C)C (stereo unspecified) (ξNMe2Val-[NMeF][NMeV][NMeV]P-OtBu; configuration not given here)
inactive: [1] 40.4 µM | [2] 31.6 µM | [3] 52.7 µM | [4] 20 µM | [5] 25.4 µM | [6] 13.9 µM | [7] 18 µM | [8] 62.5 µM | [9] 63 µM | [10] > 10 µM | [12] 60.8 µM | [13] 40.6 µM | [14] 37.2 µM | [15] 22.9 µM
